ChEMBL document CHEMBL1133765, “QSAR model for drug human oral bioavailability” (J Med Chem, 2000)

Legend:
[1] = octanol/water
[2] = clinical; settings: human, in vivo, po
[3] = physchem; settings: octanol/water, pH 6.5
[4] = physchem

Row | Compound | delta logD [1] | bioavailability ([2]; F) [%] | logD [3] | bioavailability [2] [%] | pKa [4]
1 | O=C(NCC1CCCCN1)c1cc(OCC(F)(F)F)ccc1OCC(F)(F)F (configuration not stated) [FLECAINIDE] | -0.9 | ≥ 80 | 0.24 |  | 
2 | O=[N+]([O-])C1O[C@H]2[C@H](OC[C@H]2O)[C@H]1O (some centres not stated) | 0 | ≥ 80 | -0.15 |  | 
3 | NC(=O)N1c2ccccc2C=Cc2ccccc21 [CARBAMAZEPINE] | 0 | ≥ 80 |  |  | 
4 | CC[C@H](C)C(=O)O[C@H]1C[C@@H](C)C=C2C=C[C@H](C)[C@H](CC[C@@H]3C[C@@H](O)CC(=O)O3)[C@H]21 [LOVASTATIN] | 0 |  | 4.26 |  | 
5 | O=C1Nc2ccc(Cl)cc2C(c2ccccc2Cl)=NC1O (configuration not stated) [LORAZEPAM] | 0 |  |  | ≥ 80 | 
6 | Nc1ccc(S(=O)(=O)Nc2ncccn2)cc1 [SULFADIAZINE] | 0.65 | ≥ 80 | -0.39 |  | 
7 | Oc1ncnc2[nH]ncc12 [ALLOPURINOL] | 0 |  | -0.55 | ≥ 80 | 
8 | C=CCc1ccccc1OCC(O)CNC(C)C (configuration not stated) [ALPRENOLOL] | -0.89 | ≤ 20 | 0.4 |  | 
9 | NC(=O)CCCCc1ccccc1 | 0 | ≥ 80 | 0.13 |  | 
10 | CN(C)CCC(c1ccc(Cl)cc1)c1ccccn1 (configuration not stated) [CHLORPHENIRAMINE] | -0.89 |  | 0.69 |  | 
11 | COc1ccc(C(CN(C)C)C2(O)CCCCC2)cc1 (configuration not stated) [VENLAFAXINE] |  |  | -2.29 | ≤ 20 | 
12 | COC(=O)C1=C(C)NC(C)=C(C(=O)OC)C1c1ccccc1[N+](=O)[O-] [NIFEDIPINE] |  |  |  | 79 | 
13 | O=[N+]([O-])C1O[C@H]2[C@H](OC[C@@H]2O)[C@@H]1O (some centres not stated) | 0 | ≥ 80 | -0.4 |  | 
14 | CCC1(CCC(C)C)C(=O)NC(=O)NC1=O [AMOBARBITAL] | 0.13 |  | 2.05 | ≥ 80 | 
15 | CCc1cccc2c3c([nH]c12)C(CC)(CC(=O)O)OCC3 (configuration not stated) [ETODOLAC] |  | ≥ 80 |  |  | 4.7
16 | Cc1ncc([N+](=O)[O-])n1CCO [METRONIDAZOLE] | 0 | ≥ 80 |  |  | 

Row | Compound | delta logD [1] | bioavailability ([2]; F) [%] | logD [3] | bioavailability [2] [%] | pKa [4]
17 | Cc1cccc(C)c1NC(=O)C(C)N (configuration not stated) [TOCAINIDE] | -0.78 | ≥ 80 | -0.56 |  | 
18 | COc1ccc2cc(CCC(C)=O)ccc2c1 [NABUMETONE] | 0 | ≤ 20 | 2.83 |  | 
19 | CCCCNC(=O)NS(=O)(=O)c1ccc(C)cc1 [TOLBUTAMIDE] |  | ≥ 80 |  |  | 5.3
20 | O=C(c1ccccc1)c1ccc2n1CCC2C(=O)O (configuration not stated) [KETOROLAC] | 0.9 | ≥ 80 | -1.34 |  | 
21 | NNc1nncc2ccccc12 [HYDRALAZINE] | -0.61 | ≤ 20 | 0.14 |  | 
22 | CCCC(CCC)C(=O)O [VALPROIC ACID] | 0.89 | ≥ 80 | 1.04 |  | 
23 | Cc1ccnc2c1NC(=O)c1cccnc1N2C1CC1 [NEVIRAPINE] |  |  | 1.92 | ≥ 80 | 
24 | COC(=O)Nc1nc2ccc(C(=O)c3ccccc3)cc2[nH]1 [MEBENDAZOLE] | 0 | ≤ 20 | 2.83 |  | 
25 | COc1cc(Cc2cnc(N)nc2N)cc(OC)c1OC [TRIMETHOPRIM] |  | > 80 |  |  | 
26 | CCCCNc1cc(C(=O)O)cc(S(N)(=O)=O)c1Oc1ccccc1 [BUMETANIDE] | 0.9 | ≥ 80 | -1.84 |  | 
27 | O=c1ccc2ccccc2o1 [COUMARIN] |  | < 20 |  |  | 
28 | CCO [ALCOHOL] |  | > 80 |  |  | 
29 | CNC1(c2ccccc2Cl)CCCCC1=O (configuration not stated) [KETAMINE] |  |  | 1.14 | ≤ 20 | 
30 | CN(C)CCCN1c2ccccc2CCc2ccc(Cl)cc21 [CLOMIPRAMINE] |  |  | 2.49 |  | 
31 | Cc1c(OCC(F)(F)F)ccnc1C[S+]([O-])c1nc2ccccc2[nH]1 (configuration not stated) [LANSOPRAZOLE] |  |  | 1.73 | ≥ 80 | 
